Experimental data reported in the NIST ThermoML archive (doi:10.1021/je030226s).

What was measured:
[1] = refractive index (Na D-line) (dimensionless); xn = mol fraction of the nth substance listed; details: 101.32 kPa, Liquid
[2] = xn = mol fraction of the nth substance listed; details: 101.32 kPa, Liquid

CCCCCl [1-chlorobutane] + CCCCO
Details	mass density, 288.15 K [kg/m3]	mass density, 298.15 K [kg/m3]	mass density, 308.15 K [kg/m3]	refractive index, 288.15 K	refractive index, 298.15 K	refractive index, 308.15 K	viscosity, 288.15 K [mPa·s]	viscosity, 298.15 K [mPa·s]	viscosity, 308.15 K [mPa·s]
[1], x2 = 0	–	–	–	1.4045	1.3993	1.3941	–	–	–
[1], x2 = 0.05	–	–	–	1.4041	1.3989	1.3936	–	–	–
[1], x2 = 0.1	–	–	–	1.4039	1.3987	1.3934	–	–	–
[1], x2 = 0.2	–	–	–	1.4035	1.3984	1.3932	–	–	–
[1], x2 = 0.3	–	–	–	1.4031	1.3982	1.3931	–	–	–
[1], x2 = 0.4	–	–	–	1.4029	1.3981	1.3931	–	–	–
[1], x2 = 0.5	–	–	–	1.4027	1.398	1.3932	–	–	–
[1], x2 = 0.6	–	–	–	1.4024	1.3979	1.3932	–	–	–
[1], x2 = 0.7	–	–	–	1.4022	1.3978	1.3933	–	–	–
[1], x2 = 0.8	–	–	–	1.4019	1.3977	1.3933	–	–	–
[1], x2 = 0.9	–	–	–	1.4016	1.3975	1.3933	–	–	–
[1], x2 = 0.95	–	–	–	1.4013	1.3974	1.3933	–	–	–
[2], x2 = 0	892.2	881	869.7	–	–	–	0.472	0.423	0.382
[2], x2 = 0.05	888	876.9	865.7	–	–	–	0.49	0.437	0.388
[2], x2 = 0.1	884.3	873.3	862.3	–	–	–	0.506	0.453	0.41
[2], x2 = 0.2	877	866.3	855.5	–	–	–	0.569	0.499	0.442
[2], x2 = 0.3	869.7	859.4	848.9	–	–	–	0.655	0.569	0.497
[2], x2 = 0.4	862.4	852.4	842.2	–	–	–	0.781	0.665	0.57
[2], x2 = 0.5	854.9	845.3	835.4	–	–	–	0.953	0.798	0.676
[2], x2 = 0.6	847.3	838	828.6	–	–	–	1.196	0.977	0.81
[2], x2 = 0.7	839.4	830.5	821.5	–	–	–	1.528	1.221	1
[2], x2 = 0.8	831.2	822.7	814.1	–	–	–	1.979	1.563	1.251
[2], x2 = 0.9	822.6	814.5	806.3	–	–	–	2.601	2.019	1.584
[2], x2 = 0.95	818.1	810.3	802.3	–	–	–	2.966	2.328	1.784
